Assay results: US10000498B2, “Selective proton coupled folate transporter and folate receptor, and GARFTase inhibitor compounds and methods of using the same” (Duquesne University of the Holy Spirit, priority 2008, dated 2018)
Like-named read-outs stand apart in the source and are kept apart here.

What was measured:
[1] = tested on: KB human tumor cells (hRFC/FRα); experiment: Growth inhibition of KB human tumor cells (Cell Titer-blue cytotoxicity screen), with or without folic acid; format: cell-based
GARFTase = target: T1, GARFTase (Homo sapiens, UniProt P22102); experiment: In situ GARFTase assay (14C-glycine incorporation into formyl glycinamide ribonucleotide); format: cell-based; conditions: mean IC50, SEM in parentheses
T1 construct: In the in situ GARFTase assay, incorporation of ^14C-glycine into formyl glycinamide ribonucleotide was measured; endogenous in cells
T1 sequence (P22102 1-1010): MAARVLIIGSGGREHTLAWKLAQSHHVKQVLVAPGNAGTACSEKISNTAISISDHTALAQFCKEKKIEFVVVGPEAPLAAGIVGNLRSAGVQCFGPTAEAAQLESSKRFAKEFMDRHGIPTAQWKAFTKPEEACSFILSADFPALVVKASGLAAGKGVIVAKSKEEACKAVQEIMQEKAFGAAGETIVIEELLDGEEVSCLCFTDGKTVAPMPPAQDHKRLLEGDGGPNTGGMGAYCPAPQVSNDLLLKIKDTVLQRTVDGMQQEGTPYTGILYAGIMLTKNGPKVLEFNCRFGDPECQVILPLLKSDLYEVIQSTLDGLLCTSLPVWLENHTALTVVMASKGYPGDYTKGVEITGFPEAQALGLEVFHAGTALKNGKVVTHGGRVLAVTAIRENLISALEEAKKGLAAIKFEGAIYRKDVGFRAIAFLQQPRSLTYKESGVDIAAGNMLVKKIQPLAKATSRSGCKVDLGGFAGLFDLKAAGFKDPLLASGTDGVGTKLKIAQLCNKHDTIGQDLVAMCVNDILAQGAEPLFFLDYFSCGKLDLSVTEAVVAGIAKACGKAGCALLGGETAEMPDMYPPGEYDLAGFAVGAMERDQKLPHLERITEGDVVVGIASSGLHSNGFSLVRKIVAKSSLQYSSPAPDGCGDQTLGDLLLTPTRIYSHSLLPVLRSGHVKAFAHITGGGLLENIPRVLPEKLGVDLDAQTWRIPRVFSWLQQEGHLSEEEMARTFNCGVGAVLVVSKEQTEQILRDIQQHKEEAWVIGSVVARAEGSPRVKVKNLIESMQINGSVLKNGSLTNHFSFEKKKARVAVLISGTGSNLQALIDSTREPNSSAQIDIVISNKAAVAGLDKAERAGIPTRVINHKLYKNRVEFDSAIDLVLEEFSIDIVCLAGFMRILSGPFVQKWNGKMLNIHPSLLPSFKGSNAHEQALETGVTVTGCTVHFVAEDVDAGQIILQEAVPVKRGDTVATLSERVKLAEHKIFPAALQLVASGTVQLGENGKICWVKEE

[2] = tested on: PC43-10 cells (hRFC-expressing Chinese hamster ovary); experiment: Growth inhibition of hRFC-expressing PC43-10 CHO cells; format: cell-based
[3] = target: T2, purified recombinant mouse GARFTase (Mus musculus, UniProt Q64737); experiment: In vitro GARFTase inhibition assay; format: biochemical; conditions: purified recombinant mouse GARFTase; mean IC50, SEM in parentheses
T2 sequence (Q64737 2-1010 limits assumed): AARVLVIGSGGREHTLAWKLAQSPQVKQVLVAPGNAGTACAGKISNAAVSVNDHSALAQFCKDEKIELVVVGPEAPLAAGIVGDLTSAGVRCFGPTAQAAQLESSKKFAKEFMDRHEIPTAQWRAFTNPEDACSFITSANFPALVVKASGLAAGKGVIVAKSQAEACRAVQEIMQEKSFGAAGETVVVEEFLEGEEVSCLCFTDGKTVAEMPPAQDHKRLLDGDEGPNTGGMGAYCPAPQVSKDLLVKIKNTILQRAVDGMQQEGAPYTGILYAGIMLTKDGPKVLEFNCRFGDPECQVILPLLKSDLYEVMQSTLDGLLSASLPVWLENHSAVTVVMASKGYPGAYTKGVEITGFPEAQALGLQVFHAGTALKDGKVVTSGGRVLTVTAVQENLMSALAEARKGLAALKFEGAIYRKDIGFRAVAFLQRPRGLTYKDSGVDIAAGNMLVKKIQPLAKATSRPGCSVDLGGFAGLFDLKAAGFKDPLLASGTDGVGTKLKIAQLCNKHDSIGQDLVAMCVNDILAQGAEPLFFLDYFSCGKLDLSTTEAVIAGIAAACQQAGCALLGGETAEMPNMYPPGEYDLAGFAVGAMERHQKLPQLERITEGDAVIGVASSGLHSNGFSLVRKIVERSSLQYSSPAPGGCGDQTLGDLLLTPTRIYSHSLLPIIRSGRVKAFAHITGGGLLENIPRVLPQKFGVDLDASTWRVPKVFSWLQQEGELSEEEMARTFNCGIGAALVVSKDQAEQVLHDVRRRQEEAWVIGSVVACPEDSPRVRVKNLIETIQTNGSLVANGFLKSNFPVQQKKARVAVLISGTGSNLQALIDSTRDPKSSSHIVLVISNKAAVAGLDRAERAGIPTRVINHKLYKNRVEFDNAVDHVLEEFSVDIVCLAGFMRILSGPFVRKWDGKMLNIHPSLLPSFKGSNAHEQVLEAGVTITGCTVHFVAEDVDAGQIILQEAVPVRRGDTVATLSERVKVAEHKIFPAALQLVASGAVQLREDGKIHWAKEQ

[4] = tested on: RT16 cells (hFRα-expressing Chinese hamster ovary); experiment: Growth inhibition of FR-expressing RT16 CHO cells, with or without folic acid; format: cell-based; conditions: for IC50: Cricetulus griseus, RT16
[5] = tested on: R2 CHO cells (hRFC- and FR-null); experiment: Growth inhibition of hRFC- and FR-null R2 CHO cells; format: cell-based, Chinese hamster; conditions: Cricetulus griseus, RPMI1640/10% dialyzed fetal bovine serum, mean of 2-3 experiments
FRα = FRα (Homo sapiens, UniProt P15328); experiment: FRα binding affinity relative to folic acid; conditions: folic acid set to 1
Sequence of FRα (P15328 25-234): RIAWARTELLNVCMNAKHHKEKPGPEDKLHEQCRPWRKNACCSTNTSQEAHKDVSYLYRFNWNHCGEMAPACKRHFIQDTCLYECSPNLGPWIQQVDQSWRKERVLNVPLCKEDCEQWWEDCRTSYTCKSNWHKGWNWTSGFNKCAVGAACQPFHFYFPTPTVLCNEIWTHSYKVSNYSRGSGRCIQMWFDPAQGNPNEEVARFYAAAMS

[6] = target: thymidylate synthase (TS) (Homo sapiens, UniProt P04818); conditions: cited from earlier work
Sequence of thymidylate synthase (TS) (P04818 whole entry, species assumed): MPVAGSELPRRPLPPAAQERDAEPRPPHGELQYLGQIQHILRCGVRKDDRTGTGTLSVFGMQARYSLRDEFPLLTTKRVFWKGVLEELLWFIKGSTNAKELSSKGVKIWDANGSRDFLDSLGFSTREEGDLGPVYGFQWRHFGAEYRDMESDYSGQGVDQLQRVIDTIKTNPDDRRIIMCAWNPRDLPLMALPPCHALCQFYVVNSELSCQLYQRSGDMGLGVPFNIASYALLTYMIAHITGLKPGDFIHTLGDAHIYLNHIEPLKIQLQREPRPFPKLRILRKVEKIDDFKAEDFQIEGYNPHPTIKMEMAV

[7] = mouse, in vivo; cited from earlier work
[8] = tested on: R2/VC cells (vector control R2 CHO); experiment: Growth inhibition of vector control R2 CHO cells (Cell TiterBlue, 96 h); format: cell-based, Chinese hamster; conditions: Cricetulus griseus, read-out: Growth inhibition 50% inhibitory concentration, R2/VC
[9] = in vivo; cited from earlier work
[10] = Homo sapiens, RPMI1640/10% dialyzed fetal bovine serum, without folic acid, read-out: Growth inhibition (IC50, nM) hRFC/FRα KB
[11] = folate-free RPMI1640/10% dialyzed FBS, 25 nM leucovorin

Nc1nc2[nH]c(CCCCCc3ccc(C(=O)N[C@@H](CCC(=O)O)C(=O)O)s3)cc2c(=O)[nH]1 [AAG154360, (S)-2-({5-[5-(2-amino-4-oxo-4,7-dihydro-3H-pyrrolo[2,3-d]pyrimidin-6-yl)-pentyl]-thiophene-2-carbonyl}-amino)-pentanedioic acid]
IC50 [1, 10]: 3.4 nM
IC50 ([1]; Homo sapiens, co-treatment with folic acid (200 nM), read-out: Growth inhibition (IC50, nM) hRFC/FRα KB (+FA)): > 1000 nM
Effect of folic acid co-treatment on growth inhibition of KB cells ([1]; folic acid 200 nM): completely reversed growth inhibition
IC50 (GARFTase): 7.65 nM
IC50 ([2]; Cricetulus griseus, PC43-10, RPMI1640/10% dialyzed fetal bovine serum, mean of 2-3 experiments, read-out: Growth inhibition (IC50, nM) hRFC PC43-10): > 1000 nM
Growth inhibition of hRFC-expressing PC43-10 cells (in words) ([2]; only RFC): Neither AAG154353 and AAG154360 showed appreciable growth inhibition
IC50 [3]: 3310 nM
IC50 ([4]; RPMI1640/10% dialyzed fetal bovine serum, without folic acid, read-out: Growth inhibition (IC50, nM) hFRα RT16): 2 nM
IC50 ([4]; in the presence of an elevated concentration of folic acid, read-out: Growth inhibition (IC50, nM) hFRα RT16 (+FA)): > 1000 nM
Growth inhibition / FR-targeted activity toward RT16 cells (in words) ([4]; cells expressing FRα): high level of FR-targeted activity
IC50 [5]: > 1000 nM
FRα binding affinity compared to folic acid (FRα): very high binding affinities

Nc1nc2[nH]c(CCC#Cc3ccc(C(=O)N[C@@H](CCC(=O)O)C(=O)O)s3)cc2c(=O)[nH]1 [AAG154468, (S)-2-({5-[4-(2-amino-4-oxo-4,7-dihydro-3H-pyrrolo[2,3-d]pyrimidin-6-yl)-but-1-ynyl]-thiophene-2-carbonyl}-amino)-pentanedioic acid]
melting point: 196 to 197 °C
IC50 [1, 10]: 122 nM

Nc1nc2[nH]c(CCCCc3ccc(C(=O)N[C@@H](CCC(=O)O)C(=O)O)o3)cc2c(=O)[nH]1 [AAG154489, (S)-2-({5-[4-(2-amino-4-oxo-4,7-dihydro-3H-pyrrolo[2,3-d]pyrimidin-6-yl)-butyl]-furan-2-carbonyl}-amino)-pentanedioic acid]
IC50 [1, 10]: 0.3 nM

C#CCN(c1ccc(C(=O)N[C@@H](CCC(=O)N[C@H](CCC(=O)O)C(=O)O)C(=O)O)cc1)[C@H]1CCc2cc3nc(C)[nH]c(=O)c3cc21 [BGC638]
Inhibition of thymidylate synthase (TS) within cells [6]: potently inhibit

C#CCN(c1ccc(C(=O)N[C@@H](CCC(=O)N[C@H](CCC(=O)O)C(=O)O)C(=O)O)cc1)[C@H]1CCc2cc3nc(CO)[nH]c(=O)c3cc21 [BGC945]
Inhibition of thymidylate synthase (TS) within cells [6]: potently inhibit
Toxicity to normal tissues in mice [7]: no toxicity to normal tissues

Cc1nc2ccc3ccc(CNc4ccc5c(c4)CN([C@@H](CCC(=O)O)C(=O)O)C5=O)cc3c2c(=O)[nH]1 [GW1843U89, reference compound]
IC50 ([1]; RPMI1640/10% dialyzed fetal bovine serum, without folic acid, read-out: Growth inhibition (IC50, nM) hRFC/FRα KB): 5.8 nM
IC50 ([1]; co-treatment with folic acid (200 nM), read-out: Growth inhibition (IC50, nM) hRFC/FRα KB (+FA)): 32 nM

Nc1nc2c(c(=O)[nH]1)C[C@@H](CCc1ccc(C(=O)N[C@@H](CCC(=O)O)C(=O)O)cc1)CN2 [Lometrexol, lometrexol, reference compound]
IC50 [3]: 780 nM
IC50 [8]: > 1000 nM
Toxicity in phase 1 studies [9]: severe myelosupression

CN(Cc1cnc2nc(N)nc(N)c2n1)c1ccc(C(=O)N[C@@H](CCC(=O)O)C(=O)O)cc1 [Methotrexate, methotrexate]
IC50 [8, 11]: > 1000 nM

Nc1nc2[nH]cc(CCc3ccc(C(=O)N[C@@H](CCC(=O)O)C(=O)O)cc3)c2c(=O)[nH]1 [Pemetrexed, pemetrexed, reference compound]
IC50 [8]: 150 ± 22.5 nM

Cc1nc2ccc(CN(C)c3ccc(C(=O)N[C@@H](CCC(=O)O)C(=O)O)s3)cc2c(=O)[nH]1 [Raltitrexed, raltitrexed, reference compound]
IC50 [8, 11]: 604 ± 53.6 nM
